Where “and” joins values, the source holds several entries; their conditions need not be identical. Equal values may be shown once.

For orientation: half-life means how long it takes for the measured level to halve. Low readings indicate rapid decline, high ones slow decline.

The subject of data set [1] is dispersed islet cells of donors with T1D. Kind of data set: Glucagon secretion from dispersed islet cells of donors with T1D. It is filed as cell-based, human. The note with it: for Secretion of glucagon: dispersed islet cells, T1D donors, one value per donor, Figure 2H. As for the experimental part:
(§1) Pancreata of nondiabetic C57BL/6J mice were digested using collagenase P (Roche Diagnostics, catalog 11213873001), and islets were manually picked up using a stereomicroscope (ZEISS Stemi 305). […] Isolated mouse islets or provided human islets were dispersed as described ([28]). Briefly, 100–120 islets were washed 2 times using modified HBSS, then dispersed in 600 μL Accutase (Innovative Cell Technologies, catalog AT-104) by gently pipetting up and down for 7 minutes at 37°C. […] Following refreshing of KRBH, cells were dispensed in 8 microfuge tubes (2,000 cells/tube) and treated with WCDD301, preclustered Ephrin-A5 Fc, or preclustered Fc in the presence or absence of the competitive inhibitor of EphA4 receptor, rhyncophylline ([60]) (MilliporeSigma, catalog SML2345). In the presence or absence of these effectors, secretion assay was performed sequentially as shown in Supplemental Table 5. […] Preclustering of Ephrin-A5 Fc was done by mixing Ephrin-A5 Fc or Fc alone (BioLegend, catalog 790102) with anti-Fc antibody (Invitrogen, catalog A16086) (1:10 molar ratio) 20 minutes before treatment ([62]). […] Shedding of cleaved EphA4 was measured from the cell culture medium. Experiments were performed by dispersion of 200 islets, and EphA4 levels in media were measured by EphA4 ELISA (ABclonal, catalog RK06572).
The Integrated Islet Distribution Program provided us human donor islets with their characteristics (Supplemental Table 6). Islets were centrifuged at 500g for 3 minutes, resuspended in CMRL 1066 medium (Gibco, catalog 1150-037) containing 11 mM glucose, and rested in an incubator overnight.
For the hormone secretion assay, islets or dispersed islet cells were adapted in KRBH buffer containing 11 mM glucose for 1 hour. Then, after 2 washes in HBSS containing 11 mM glucose, islets or cells were treated in the following sequential order in the presence or absence of WCDD301: incubation in KRBH (1 mM glucose, 30 minutes) followed by medium collection, incubation in KRBH (11 mM glucose, 30 minutes) followed by medium collection.

Data set [2] in a line: Microsomal stability assay, CD-1 mouse liver microsomes. It is filed as in vitro ADME. The note with it: for Remaining in hepatic microsomes (100 at 0 min): mouse microsomes, Figure 5D. As for the experimental part:
A total of 445 μL of the working solution was transferred into prewarmed incubation plates for treated (T60) and control (NCF60) measurements. After preincubation (10 minutes at 37°C with constant shaking), 54 μL was transferred to the blank plate, followed by 6 μL of NADPH and 180 μL quenching solution. In parallel, 5 μL of WCDD301 (100 μM) was added into incubation plates (T60 and NCF60) containing microsomes and mixed thoroughly (3 times). For the NCF60 plate, 50 μL of buffer was added, mixed (thoroughly, 3 times), shaken, and incubated at 37°C for 60 minutes. In the quenching plate T0, quenching solution (180 μL) and NADPH cofactor (6 μL) were added. For T60 plate, 54 μL of the mixture was placed into the quenching plate (for T0 point), followed by adding 44 μL NADPH cofactor with shaking incubation at 37°C for 60 minutes. Quenching solution (180 μL) was added to quenching plates at 5, 15, 30, 45, and 60 minutes, and 60 μL of sample was transferred from T60 plate per time point to the quenching plates. For the NCF60 plates, 60 μL sample from the NCF60 incubation plate was transferred to the quenching plate (containing quenching solution) at the 60-minute time point. After plates were shaken for 10 minutes and centrifuged (1,750g, 20 minutes at 4°C), 80 μL of the supernatant was transferred into 240 μL HPLC water for LC-MS/MS analysis. The following first-order kinetic equation was used to calculate half-life (T1/2): [drawing 3]; when
Then, intrinsic clearance [CLint (microsomal; mic)] and hepatic clearance [CLint (liver)] were predicted using the following equations ([66]): […]
In general terms: Microsomes from liver hold many membrane-bound enzymes, among them those of drug oxidation.

Data set [3] has as its system dispersed mouse islet cells. Nature of the data set: EphA4 shedding into culture medium (EphA4 ELISA). It is filed as cell-based. Conditions: Supplemental Figure 4D. As for the experimental part: as §1
(In general: In an ELISA, binding on a coated surface is turned into a signal by an enzyme label.)

Another data set relates to diabetic NOD mice. Kind of data set: Plasma glutamine in NOD mice. It counts as in vivo, mouse. Conditions: WCDD301 group of NOD mice; quantity not given. As for the experimental part:
Terminal blood was collected into microfuge tubes containing K2-EDTA (supplemented by 45 mM phenylmethylsulphonyl fluoride and 0.77 μM aprotinin) through cardiac puncture. Plasma was separated by centrifugation (2,000g for 10 minutes at 4°C) and kept at –80°C until analysis. Plasma samples with hemolysis were excluded from the study. […] Values of BUN, creatinine, ALB, ALT, and AST were determined by a Roche Cobas C501 Autoanalyzer as performed by the Washington University Diabetes Research Center Translational Diagnostics Core. Reference intervals of blood chemistry parameters for inbred NOD mice were extracted from the Mouse Phenome Database (https://phenome.jax.org/).

Consider `CC(=O)OCC(N)(COC(C)=O)COC(C)=O` [WCDD301, 2-(acetoxymethyl)-2-aminopropane-1,3-diyl diacetate], for which the “Effect on glucagon secretion” value in data set [1] (dispersed islet cells from donors with long-standing T1D) is “reduced glucagon secretion”. The Secretion of glucagon in data set [1] (1 mM glucose) is 13.445 and 14.59; in data set [1] (11 mM glucose) it was 27.55 and 31.85. Moreover, the half-life at 1 µM in data set [2] (CD-1, mouse, liver microsomes) amounted to 1.56 h. In addition, the microsomal CLint at 1 µM in data set [2] (CD-1, mouse, liver microsomes, read-out: Intrinsic microsomal clearance) was found to be 14.8 µL/min/mg. For the same compound, the “Remaining in hepatic microsomes (100 at 0 min)” value was 95.6 in data set [2] (5 min); 86.5 in data set [2] (15 min); 79.8 in data set [2] (30 min); 69.6 in data set [2] (45 min); 64.2 in data set [2] (60 min). The Hepatic clearance in data set [2] (mouse, predicted from microsomal data) is recorded as 58.7 mL/min/kg. Moreover, the “Shedding of EphA4 into the cell culture medium” value in data set [3] is listed as “reduced shedding of EphA4 into the cell culture medium”. For the same compound, the “Plasma glutamine (Figure 7B)” value with diabetic NOD mice is 0.7 and 0.74 and 0.65 and 0.71.

The values are drawn from article PMC10906223 (JCI Insight, 2024).
